Molecules are shown by their SMILES. pEC50: −log10 of the molar value.

For orientation: pEC50 means −log10 of the EC50, conventionally taken in molar units.

This assay addresses mGluR4 (UniProt Q14833). The assay can be described thus: mGluR4 potentiation assay (EC50 for potentiation at EC20 agonist; fluorometric plate reader, Ca2+ or thallium dye). It counts as cell-based. Particulars: potentiation of mGluR4; species of receptor not given. How it is done:
The disclosed compounds and compositions can be evaluated for their ability to act as a potentiator of metabotropic glutamate receptor activity, in particular mGluR4 activity, by any suitable known methodology known in the art. For example, Chinese Hamster Ovary (CHO) cells transacted with human mGluR4 or HEK cells co-transfected with rat mGluR4 and the G-protein regulated Inwardly Rectifying Potassium channel (GIRK) were plated in clear bottom assay plates for assay in a Hamamatsu FDSS Fluorometric Plate Reader. The cells were loaded with either a Ca2+-sensitive fluorescent dye or the thallium responsive dye and the plates were washed and placed into a suitable kinetic plate reader. For human mGluR4 assays, a fluorescence baseline was established for 3-5 seconds, the disclosed compounds were then added to the cells, and the response in cells was measured. Approximately two and a half minutes later, a concentration of mGluR4 orthosteric agonist (e.g. glutamate or L-AP4) eliciting approximately 20% (EC20) of the maximal agonist response was added to the cells, and the response was measured. Two minutes later, a concentration of mGluR4 agonist (e.g. glutamate or L-AP4) eliciting 80% (EC80) of the maximal agonist response was added to the cells, and the response was measured. For rat mGluR4/GIRK experiments, a baseline was established for approximately five seconds, disclosed compounds were added, and either an EC20 or EC80 concentration of agonist was added approximately two and one half minutes later. Potentiation of the agonist response of mGluR4 by the disclosed compounds was observed as an increase in response to the EC20 concentration of agonist in the presence of compound compared to the response to agonist in the absence of compound. Similarly, antagonism of the agonist response of mGluR4 by the disclosed compounds was observed as a decrease in response to the EC80 concentration of agonist in the presence of compound compared to the response to agonist in the absence of compound.
The above described assay operated in two modes. In the first mode, a range of concentrations of the disclosed compounds are added to cells, followed by a single fixed concentration of agonist. If the compound acts as a potentiator, an EC50 so value for potentiation and a maximum extent of potentiation by the compound at this concentration of agonist is determined by non-linear curve fitting. If the compound acts as a noncompetitive antagonist, an IC50 value is determined by non-linear curve fitting. In the second mode, several fixed concentrations of the disclosed compounds are added to various wells on a plate, followed by a range in concentrations of agonist for each concentration of disclosed compound. The EC50 values for the agonist at each concentration of compound are determined by non-linear curve fitting. A decrease in the EC50 value of the agonist with increasing concentrations of the sample compound (a leftward shift of the agonist concentration-response curve) is an indication of the degree of mGluR4 potentiation at a given concentration of the sample compound. A decrease in the maximal response of the agonist with increasing concentrations of the sample compounds, with or without a rightward shift in agonist potency, is an indication of the degree of noncompetitive antagonism at mGluR4. The second mode also indicates whether the sample compounds also affect the maximum response to mGluR4 to agonists.
For `Cc1noc2ccc(Nc3n[nH]c4nccnc34)cc12` [Example 23, 3-methyl-N-(1H-pyrazolo[3,4-b]pyrazin-3-yl)benzo[d]isoxazol-5-amine], the negative logarithm of the EC50 (pEC50) was 6.91.
Under `c1cc2oncc2cc1Nc1n[nH]c2c1CCCC2` [Example 21, N-(4,5,6,7-tetrahydro-1H-indazol-3-yl)benzo[d]isoxazol-5-amine] stands < 5.00; under `CC(C)(C)Cc1noc2cc(Nc3n[nH]c4cc(F)cnc34)cc(F)c12` [Example 151, 3-(2,2-dimethylpropyl)-4-fluoro-N-(6-fluoro-1H-pyrazolo[4,3-b]pyridin-3-yl)-1,2-benzoxazol-6-amine], < 5.00; under `CCCCNC(c1noc2cc(Nc3n[nH]c4cccnc34)ccc12)C(F)(F)F` (stereo not shown) [Example 180, 3-[1-(butylamino)-2,2,2-trifluoro-ethyl]-N-(1H-pyrazolo[4,3-b]pyridin-3-yl)-1,2-benzoxazol-6-amine; 2,2,2-trifluoroacetic acid], 6.09.
Under `COc1ncc(Cc2noc3cc(Nc4n[nH]c5cccnc45)ccc23)cn1` [Example 166, 3-[(2-methoxypyrimidin-5-yl)methyl]-N-(1H-pyrazolo[4,3-b]pyridin-3-yl)-1,2-benzoxazol-6-amine] stands 6.41.
Under `c1cncc(OCc2noc3cc(Nc4n[nH]c5cccnc45)ccc23)c1` [Example 169, N-(1H-pyrazolo[4,3-b]pyridin-3-yl)-3-(3-pyridyloxymethyl)-1,2-benzoxazol-6-amine] stands < 4.52.
For `CC(C)(C)Cc1noc2cc(Nc3n[nH]c4nccnc34)ccc12` [Example 14, 3-neopentyl-N-(1H-pyrazolo[3,4-b]pyrazin-3-yl)benzo[d]isoxazol-6-amine], the pEC50 was 6.21.
For `CCC(F)(F)c1noc2cc(Nc3n[nH]c4cccnc34)ccc12` [Example 179, 3-(1,1-difluoropropyl)-N-(1H-pyrazolo[4,3-b]pyridin-3-yl)-1,2-benzoxazol-6-amine], the negative-log EC50 (pEC50) was 5.70.
Consider `CC(C)(C)Cc1noc2cc(Nc3n[nH]c4cccnc34)cc(F)c12` [Example 145, 3-(2,2-dimethylpropyl)-4-fluoro-N-(1H-pyrazolo[4,3-b]pyridin-3-yl)-1,2-benzoxazol-6-amine; 2,2,2-trifluoroacetate acid], for which the negative logarithm of the EC50 (pEC50) is 5.84.
Under `Cn1ncc2cc(Cc3noc4cc(Nc5n[nH]c6nccnc56)ccc34)ccc21` [Example 114, 3-[(1-methylindazol-5-yl)methyl]-N-(1H-pyrazolo[3,4-b]pyrazin-3-yl)-1,2-benzoxazol-6-amine] stands 7.37; under `CC(C)(C)Cc1noc2c(F)c(Nc3n[nH]c4nccnc34)ccc12` [Example 164, 3-(2,2-dimethylpropyl)-7-fluoro-N-(1H-pyrazolo[3,4-b]pyrazin-3-yl)-1,2-benzoxazol-6-amine], < 4.52; under `CCCC(C)c1noc2cc(Nc3n[nH]c4ncc(F)cc34)ccc12` (stereo not shown) [Example 96, N-(5-fluoro-1H-pyrazolo[3,4-b]pyridin-3-yl)-3-(1-methylbutyl)-1,2-benzoxazol-6-amine], 6.38.
The figure for `O=C(Cc1noc2cc(Nc3n[nH]c4nccnc34)ccc12)NC1CC(F)(F)C1` [Example 141, N-(3,3-difluorocyclobutyl)-2-[6-(1H-pyrazolo[3,4-b]pyrazin-3-ylamino)-1,2-benzoxazol-3-yl]acetamide] is 6.56; for `c1cnc2c(Nc3ccc4c(OC5CCOCC5)noc4c3)n[nH]c2c1` [Example 26, N-(1H-pyrazolo[4,3-b]pyridin-3-yl)-3-((tetrahydro-2H-pyran-4-yl)oxy)benzo[d]isoxazole-6-amine] it is 5.92.
Under `CCCC(C)c1noc2cc(Nc3n[nH]c4nccnc34)ccc12` (stereo not shown) [Example 98, 3-(1-methylbutyl)-N-(1H-pyrazolo[3,4-b]pyrazin-3-yl)-1,2-benzoxazol-6-amine] stands 6.76; under `FC(F)(F)CCc1noc2cc(Nc3n[nH]c4nccnc34)ccc12` [Example 100, N-(1H-pyrazolo[3,4-b]pyrazin-3-yl)-3-(3,3,3-trifluoropropyl)-1,2-benzoxazol-6-amine], 6.72.

Values taken from US9980945B2, “Benzoisoxazole-substituted compounds as MGLUR4 allosteric potentiators, compositions, and methods of treating neurological dysfunction” (Vanderbilt University, priority 2015, dated 2018).
